Holding throughout (type): cell-based, human
One assay deals with Wnt5a/FZD5. Briefly: Immunocytochemistry of Wnt5a/FZD5 colocalization and vesicles in hpRPE cells. To be noted: for number of Wnt5a/FZD5 colocalized vesicles per field: hpRPE, UOS 1600 μM H2O2, 2 hours, +/− 50 ng/ml Wnt5a, no Pitstop2. On the procedure:
To ascertain localization and interaction between FZD5 and Wnt5a we incubated hpRPE undergoing UOS with Wnt5a+/−NPD1 or other lipid mediators.
(§1) Immunostaining can be performed in 8-well slide chambers and the Hoechst staining in 24-well plates. […] Briefly, cells can be fixed using 4% paraformaldehyde in PBS 1× for 20 min at room temperature or overnight at 4° C. After three washes with PBS, cells can be permeabilized using 0.1% Triton™ X-100 for five minutes and blocked using 10% normal serum and 1% BSA for one hour. […] Hoechst staining can be performed using same protocol of fixation. In one embodiment, permeabilization is done using methanol for 20 min at room temperature. […] Dying cells can be identified by size (0 to 50 pixels), intensity threshold, and circularity. The ratio of hyperpyknotic cells over the total can be calculated for nine randomly chosen fields per sample obtained from three independent wells per experiment. Each experiment can be repeated at least three times to confirm the findings.
In an embodiment involving early stages of apoptosis, the total number of cells per field is assessed and counted to ensure unbiased observations. […] Settings can be adjusted in the conditions that show higher intensity and can be used throughout the remaining samples. In an embodiment, Pearson's colocalization coefficient (PCC) is obtained using FV1200 analysis software for every field in each experiment, and the mean and SEM are depicted in FIGS. 7-11.
Immunostaining was performed in 8-well slide chambers and the Hoechst staining in 24 well plates. […] Briefly, cells were fixed using 4% paraformaldehyde in PBS 1× for 20 min at room temperature or overnight at 4° C. After three washes with PBS, cells were permeabilized using 0.1% Triton™ X-100 for five minutes and blocked using 10% normal serum and 1% BSA for one hour. […] Hoechst staining was performed using same protocol of fixation, but permeabilization was done using methanol for 20 min at room temperature. […] Dying cells were identified by size (0 to 50 pixels), intensity threshold and circularity. The ratio of hyperpyknotic cells over the total was calculated for nine randomly chosen fields per sample obtained from three independent wells per experiment. Each experiment was repeated at least three times to confirm the findings. In the experiments involving early stages of apoptosis, we assessed the total number of cells per field and counted them to ensure unbiased observations. […] Pearson's colocalization coefficient (PCC) was obtained using FV1200 analysis software for every field in each experiment, and the mean and SEM are depicted in Figures S1-S5. […] IMARIS software analysis was performed building a colocalization channel using the Costes thresholding, and the colocalized elements were analyzed using the spots function using the settings different spots sites, background subtraction and local contrast. The output obtained consisted on a collection of sizes (one per element in each picture) or the mean of the intensity in each spot.

Another assay concerns ARPE-19 cells and hpRPE. Briefly: Apoptosis by Hoechst staining in RPE cells under UOS. On the procedure:
ARPE-19 cells, can be plated and grown in DMEM/F-12 containing 10% FBS and 1× penicillin/streptomycin at 37° C., 5% CO2, 99% relative humidity for 24 h. […] 15-LOX-1 deficient cells can be maintained in the same medium as ARPE-19 with the addition of 500 μg/mL Geneticin (Life Technologies Corporation, Carlsbad, Calif.). Transfection can be performed in all cases using Lipofectamine 2000 (Life Technologies Corporation, Carlsbad, Calif.) following the manufacturer's recommendations. […] Experiments with transfection efficiency that yielded less than 80% can be discarded. For siRNA, we used 6 μl of Lipofectamine 2000 per 50 pmol of siRNA per mL of incubation medium, and, for plasmids, we used 6 μl of Lipofectamine 2000 per 2 μg of plasmid per mL of incubation medium. Cells can be incubated for 5 hours at 37° C., 5% CO2 and 99% relative humidity. […] When siRNA/plasmid co-transfection is required, siRNA and plasmid-carrying transfection mixes can be prepared separately and added one after the other in the same well. Oxidative stress treatments can be performed using 600 (ARPE-19) or 1600 (hRPE) μM H2O2, along with 10 ng/mL TNFα, for the required time indicated in each experiment. The treatment we used employed the low serum (0.5% serum) without hFGF. Treatment to induce uncompensated oxidative stress (UOS) can be performed after 8 hours of low-serum medium incubation unless specifically noted. Wnt5a, Wnt3a or NPD1 can be added immediately before induction of UOS. In the secretion experiments, Pitstop 2 can be added to the medium 2 hours before harvesting.
as §1
ARPE-19 cells, were plated and grown in DMEM/F-12 containing 10% FBS and 1× penicillin/streptomycin at 37° C., 5% CO2, 99% relative humidity for 24 h. […] 15-LOX-1 deficient cells were maintained in the same medium as ARPE-19 with the addition of 500 μg/mL Geneticin (Life Technologies Corporation). Transfection was performed in all cases using Lipofectamine 2000 (Life Technologies Corporation) following the manufacturer's recommendations. […] Experiments with transfection efficiency that yielded less than 80% were discarded. For siRNA, we used 6 μl of Lipofectamine 2000 per 50 pmol of siRNA per mL of incubation medium, and, for plasmids, we used 6 μl of Lipofectamine 2000 per 2 μg of plasmid per mL of incubation medium. Cells were incubated for 5 hours at 37° C., 5% CO2 and 99% relative humidity. […] When siRNA/plasmid co-transfection was required, siRNA and plasmid-carrying transfection mixes were prepared separately and added one after the other in the same well. […] The treatment we used employed the low serum (0.5% serum) without hFGF. Treatment to induce uncompensated oxidative stress (UOS) was performed after 8 hours of low-serum medium incubation unless specifically noted. Wnt5a, Wnt3a or NPD1 was added immediately before induction of UOS.

A further assay deals with Wnt5a. Briefly: Western blot of secreted (sWnt5a) and cellular (cWnt5a) Wnt5a in RPE cells under UOS. On the procedure: To monitor transcription, translation, and secretion of Wnt5a, we performed western blot assays using cellular lysates and medium from hpRPE undergoing UOS+/−NPD1 at different time points. Medium was precipitated using Methanol/Chloroform to bring down all secreted Wnt5a.
The pellet can be re-suspended and denatured in 100 μl of 2× Laemmli sample buffer (Bio-Rad Laboratories, Hercules, Calif.) at 95° C. for 5 min. MCAo brain tissue and cell samples can be homogenized using RIPA (Thermo Fisher Scientific, Waltham, Mass.) buffer supplemented with protease and phosphatase inhibitor cocktails (Millipore Sigma, Burlington, Mass.). In embodiments, the amount of 30 μg of total protein is loaded in NuPAGE® Novex® 4-12% Bis-Tris precast gels (Life Technologies Corporation, Carlsbad, Calif.) and run at constant 120V for about 1 hour and 20 min. Proteins can be transferred to μm Nitrocellulose membrane using Bio-Rad Trans-Blot® Turbo™ System (Bio-Rad Laboratories, Hercules, Calif.). ECL™ Plex Fluorescent Rainbow Markers (GE Healthcare, Chicago, Ill.) can be used as the ladder for protein's molecular weight. Membranes can be blocked using 5% non-fat dry milk (Bio-Rad Laboratories, Hercules, Calif.) in TBS with 1% Tween® 20 (TBST-10×) (Croda International, Snaith, United Kingdom) for 1 hour and incubated overnight with primary antibodies. Anti-mouse or anti-rabbit secondary antibodies conjugated with Cy3 or Cy5 can be used to visualize the protein of interest. Immunoblots can be documented using LAS 4000 imaging system (GE Healthcare Life Sciences, Marlborough, Mass.). A time course exposition can be produced in each case to prevent quantification of saturated images. In embodiments, densitometry data are obtained using ImageQuant™ TL software (GE Healthcare Life Sciences, Marlborough, Mass.).
The pellet was re-suspended and denatured in 100 μl of 2× Laemmli sample buffer (Bio-Rad Laboratories) at 95° C. for 5 min. MCAo brain tissue and cell samples were homogenized using RIPA (Thermo Fisher Scientific) buffer supplemented with protease and phosphatase inhibitor cocktails (Sigma). The amount of 30 μg of total protein was loaded in NuPAGE® Novex® 4-12% Bis-Tris precast gels (Life Technologies Corporation) or Mini-PROTEAN TGX Stain free gels 4-15% and ran at constant 120V for 1 hour and 20 min or 250 V for 40 min respectively. Proteins were transferred to μm Nitrocellulose or LF-PVDF membrane using Bio-Rad Trans-Blot® Turbo™ System (Bio-Rad Laboratories). ECL™ Plex Fluorescent Rainbow Markers (GE Healthcare) were used as the ladder for protein's molecular weight. […] A time course exposition was produced in each case to prevent quantification of saturated images. […]

A further assay concerns NF-κB/p65. Description: NF-κB/p65 luciferase reporter assay in hpRPE cells. To be noted: hpRPE under UOS in the presence of Wnt5a 50 ng/ml; NPD1 100 or 200 nM; Pitstop2 25 μM. Here is the method: We asked if Wnt5a activates inflammatory signaling to enhance apoptosis mediated by UOS by assessing COX-2 promoter activation (FIG. 10). […] To compare Wnt5a effects with other cytokines that enhance COX-2 expression, Interleukin-1β (IL-1β) activity was measured. […] To determine if Wnt5a activates NF-κB, hpRPE were transfected with a construct that encompassed three p65 high-affinity binding sites in tandem, driving the expression of the luciferase reporter gene (FIG. 1G). […] To assess whether or not FDZ5 and ROR2 were involved in NF-κB activation by Wnt5a, cells were co-transfected with siRNAs targeting the two receptors (FIG. 11).
(§2) Except TOP/FOP flash, the Luciferase activity can be standardized using a construct expressing GFP constitutively under CMV virus promoter. To assess luciferase activity, cell lysates can be obtained using Passive Lysis Buffer (Promega, Madison, Wis.) and mixed with a luciferase assay reagent (Promegam Madison, Wis.). Chemiluminescence produced by luciferase and fluorescence from GFP can be detected using Appliscan 2.3. Data can be analyzed using SkanIt 2.3 (Thermo Fisher Scientific, Waltham, Mass.).
Except TOP/FOP flash, the Luciferase activity was standardized using a construct expressing GFP constitutively under CMV virus promoter. To assess luciferase activity, cell lysates were obtained using Passive Lysis Buffer (Promega) and mixed with a luciferase assay reagent (Promega). Chemiluminescence produced by luciferase and fluorescence from GFP was detected using Appliscan 2.3. Data were analyzed using SkanIt 2.3 (Thermo Fisher Scientific).

The subject of another assay is COX-2 promoter. Briefly: COX-2 promoter luciferase reporter assay. To be noted: ARPE-19 cells; 50 ng/ml Wnt5a or 20 ng/ml IL1-β.
Description: as §2
A, Design of luciferase reporter assay performed with COX-2 promoter construct. UOS was induced by the addition of 10 ng/ml TNFα and 600 μM H2O2 in ARPE-19 cells. The concentrations of Wnt5a used was 50 ng/ml. Cells were co-transfected with the constructs driving the expression of luciferase and a plasmid that constitutively expressed green fluorescent protein for standardization. Luciferase activity is denoted in luciferase activity units (LUC) and standardized using GFP fluorescent (GFP). B, Wnt5a and IL-1β effect time course on COX-2 promoter activity. […] Luciferase activity (LUC) was measured in ARPE-19 cells in the presence of 50 ng/ml Wnt5a or 20 ng/ml IL1-β. […] Luciferase activity measured in cells incubated with 50 ng/ml Wnt5a in the presence or absence of 100 nM (+) and 200 nM (++) NPD1.
On the technique in general: In a reporter assay the amount or activity of a reporter protein is the signal.

Entries after “also recorded” stand apart in the source; their conditions may differ.

Take `CCC=CCC(O)C=CC=CC=CC(O)CC=CCC=CCCC(=O)O` (centres unmarked) [10R, 17R diHDHA]: the “number of Wnt5a/FZD5 colocalized vesicles per field” value is “decreased the amount of vesicles per field” in the assay on Wnt5a/FZD5 and “showed the same effect as NPD1” with Wnt5a/FZD5 (listed as NPD1 stereoisomer, of 10-R, 17R configuration). The “UOS-dependent NFkB activation and apoptosis (FIG. 18B legend)” value with ARPE-19 cells and hpRPE is “counteracted these effects”. On to `CC/C=C\C/C=C\C[C@H](O)\C=C/C=C/C=C/[C@H](O)C/C=C\CCC(=O)O` [Maresin-1], for which the “UOS-dependent NFkB activation and apoptosis (FIG. 18B legend)” value with ARPE-19 cells and hpRPE is “counteracted these effects”. On to `O=C1NC(=NS(=O)(=O)c2cccc3ccccc23)S/C1=C\c1ccc(Br)cc1` [Pitstop2], for which the “number of Wnt5a/FZD5 co-localized vesicles in the presence of Pitstop2” value with Wnt5a/FZD5 (25 μM Pitstop2, control and UOS treated cells, rWnt5a added) is listed as “prevented the increased in Wnt5a/FZD5 co-localized vesicles; also recorded: inhibition produced by Box5 was reverted”. Also, the “cellular Wnt5a (cWnt5a) abundance” value in the assay on Wnt5a (cells undergoing UOS+/−NPD1 and Pitstop2) is recorded as “did not modify cWnt5a abundance”. The “secreted Wnt5a (sWnt5a) in medium” value in the assay on Wnt5a (hpRPE cells under UOS, Pitstop2 added 2 hours before harvesting) is recorded as “reverted the effect of NPD1 on sWnt5a; also recorded: increase in secreted Wnt5a; also recorded: increase in sWnt5a”. Moreover, in the assay on NF-κB/p65, the “NF-κB/p65 activation (luciferase)” value is listed as “decreases the activation of p65/NF-κB; also recorded: interferes with the activation of NF-κB/p65; also recorded: decreases the activation of p65/NFkB; also recorded: interferes with the activation of NFkB/p65”.

On to `CC/C=C\C[C@H](O)[C@H](O)/C=C/C=C/C=C\C=C\[C@@H](O)C/C=C\CCC(=O)O` [RvD2, 7S,16R,17S-trihydroxy-DHA], for which the “UOS-dependent NFkB activation and apoptosis (FIG. 18B legend)” value with ARPE-19 cells and hpRPE is “counteracted these effects”.

For the compound `CC/C=C\C[C@H](O)/C=C/C=C\C=C\C=C\[C@@H](O)[C@@H](O)C/C=C\CCC(=O)O` [RvD1, 7S,8R,17S-trihydroxy-DHA], the “UOS-dependent NFkB activation and apoptosis (FIG. 18B legend)” value with ARPE-19 cells and hpRPE is given as “counteracted these effects”.

For “IL-1 β: cytokine that enhances COX-2 expression, used for comparison with Wnt5a”, the “COX-2 promoter activation (luciferase)” value in the assay on COX-2 promoter is listed as “growing staggered pattern of COX-2 promoter activation through at least 16 hours”.
